Results: patent US20230414626A1, “INDUCTION OF FERROPTOSIS FOR CANCER THERAPY” (Memorial Sloan Kettering Cancer Center, priority 2020, published 2023)

Key:
[1] = test system: BT474 cells; experiment: Cell death quantification (Sytox Green), RSL3-induced ferroptosis; assay type: cell-based, human; conditions: RSL3 0.5-1 μM, GDC-0941 2 μM, MK-2206 2 μM, Torin 1 μM, CCI-779 0.5 μM, Fatostatin A 5 μM, CAY10566 5 μM
Experimental: (§1) FIG. 1 A-D. Oncogenic activation of the PI3K-AKT-mTOR signaling pathway confers resistance to ferroptosis. (A) Genetic background of the analyzed cancer cell lines and their sensitivity to RSL3. (B) Cells were seeded in 96-well plate, 2×10^4 cells per well and incubated overnight. Cell death was induced by 24-h treatment of RSL3 with indicated concentrations. Cell death were measured by Sytox Green staining, as detailed in Methods. (C) Indicated protein components in the PI3K-AKT pathway were detected by western blot in indicated cell types. (D) Cells were treated with or without PI3K inhibitor GDC-0941 (2 μM), AKT inhibitor MK-2206 (2 μM), RSL3 (1 μM), or ferroptosis inhibitor Ferrostatin-1 (Fer-1, 1 μM) as indicated for 12 h (BT474) or 24 h (MDA-MB-453). Cell death was measured. Indicators for P values (same in all other figures): ****, P≤0.0001; *** P≤0.001; **, P≤0.01; *, P≤0.05; ns, P>0.05
(§2) FIG. 2 A-E. mTORC1, instead of mTORC2, suppresses ferroptosis. (A) MDA-MB-453 and BT474 were treated with CCI-779 (0.5 μM), RSL3 (1 μM for MDA-MB-453 cells and 0.5 μM for BT474 cells), and Fer-1 (1 μM) as indicated. (B) Cells were seeded in 6-well plate, 4×10^5 cells per well and incubated overnight. MDA-MB-453 and BT474 cells were treated as indicated. CCI-779, 0.5 μM; RSL3, 1 μM for MDA-MB-453 cells and 0.5 μM for BT474 cells; Fer-1, 1 μM. Cells were stained with 5 μM C1I-BODIPY followed by flow cytometry after 8 h-treatment. (C) 3D spheroids were treated as indicated. CCI-779, 0.5 μM; RSL3, 0.5 μM; Fer-1, 1 μM. Top panel, dead cells were stained by SYTOX Green (scale bar, 100 μm). Bottom panel, cell viability was assayed by measuring cellular ATP levels. (D) Cells expressing shRNAs targeting RPTOR or RICTOR were treated as indicated. CCI-779, 0.5 μM; RSL3, 0.5 μM; Fer-1, 1 μM. (E) Lipid peroxidation of samples as in panel D were measured.
(§3) FIG. 5 A-H. SREBP1 protects cells from ferroptosis through SCD1 activity. (A) The expression of SREBP1, and its targets SCD1, FASN, and ACACA, in control and SREBF1-sgRNA cells were detected by western blot. (B) The mRNA level of SREPF1 and its targets gene SCD were measured by RT-PCR. (C) Cells were pretreated with or without 5 μM CAY10566 overnight, and then subjected to the indicated treatments. RSL3, 0.5 μM for BT474 cells and 1 μM for MDA-MB-453 cells; CAY10566, 5 μM; Fer-1, 1 μM. (D) Cells expressing control or SCD-sgRNA were treated as indicated. RSL3, 1 μM for MDA-MB-453 cells and 0.5 μM for BT474 cells; Fer-1, 1 μM. (E) 3D spheroids derived from BT474 cells harboring control or SCD-sgRNA were treated as indicated. RSL3, 0.5 μM; CCI-779, 0.5 μM; Fer-1, 1 μM. Left, cell death staining (scale bar, 100 m). Right, cell viability. (F) SCD1 was overexpressed in BT474 cells and determined by western blot. Cells were treated as indicated. RSL3, 0.5 μM; CCI-779, 0.5 μM. (G) 3D spheroids derived from BT474 cells with control or SCD1 overexpression were treated as indicated. RSL3, 0.5 μM; CCI-779, 0.5 μM; Fer-1, 1 μM. Left, cell death staining (scale bar, 100 m). Right, cell viability. (H) Cells were treated as indicated. RSL3, 0.5 μM for BT474 and 1 μM for MDA-MB-453; CCI-779, 0.5 μM; Oleic acid (OA), 0.5 mM; stearic acid (SA), 0.5 mM.
(§4) FIG. 7 A-J. PI3K-AKT-mTOR signaling regulates ferroptosis sensitivity. (A) Cells were treated as indicated. GDC-0941, 2 μM; MK-2206, 2 μM; RSL3, 1 μM; Fer-1, 1 μM. Lipid peroxidation was measured. (B) Cells were treated with indicated conditions. Torin, 1 μM; RSL3, 1 μM for MDA-MB-453 cells and 0.5 μM for BT474 cells; Fer-1, 1 μM. Cell death was measured. (C) Cells were treated with indicated conditions. RSL3, 10 μM for MCF cells and PC-3 cells, 5 μM for T47D cells, 1 μM for HepG2 cells; Torin, 1 μM; CCI-779, 0.5 μM. (D) Cells were treated as indicated. CCI-779, 0.5 μM; Torin, 1 μM; Fer-1, 1 μM. Cell death was staining by propidium iodide (PI) (red) or Sytox Green (green) (scale bar, 100 μm). (E-F) 3D spheroids for MDA-MB-453 cells and MCF7 cells were treated as indicated. […]

[2] = test system: MDA-MB-453 cells; experiment: as above; assay type: cell-based, human; conditions: RSL3 1 μM, GDC-0941 2 μM, MK-2206 2 μM, Torin 1 μM, CCI-779 0.5 μM, Fatostatin A 5 μM, CAY10566 5 μM
Experimental: as §1, §2, §3, §4

Structure (SMILES)	sensitization to ferroptosis (cell death) induced by RSL3 [1]	sensitization to ferroptosis (cell death) induced by RSL3 [2]
Cc1nnc(-c2ccc(N3CCC(Oc4cc(F)ccc4Cl)CC3)nn2)o1 [CAY10566]	sensitized the effect of RSL3	sensitized the effect of RSL3
CO[C@H]1C[C@@H]2CC[C@@H](C)[C@@](O)(O2)C(=O)C(=O)N2CCCC[C@H]2C(=O)O[C@H]([C@H](C)C[C@@H]2CC[C@@H](OC(=O)C(C)(CO)CO)[C@H](OC)C2)CC(=O)[C@H](C)/C=C(\C)[C@@H](O)[C@@H](OC)C(=O)[C@H](C)C[C@H](C)/C=C/C=C/C=C/1C [CCI-779, Temsirolimus]	sensitize	sensitize
CCCc1cc(-c2nc(-c3ccc(C)cc3)cs2)ccn1 [Fatostatin A]	sensitized ferroptosis	sensitized ferroptosis
CS(=O)(=O)N1CCN(Cc2cc3nc(-c4cccc5[nH]ncc45)nc(N4CCOCC4)c3s2)CC1 [GDC-0941]	sensitized	sensitized
NC1(c2ccc(-c3nc4ccn5c(=O)[nH]nc5c4cc3-c3ccccc3)cc2)CCC1 [MK-2206]	sensitized	sensitized
CCC(=O)N1CCN(c2ccc(-n3c(=O)ccc4cnc5ccc(-c6cnc7ccccc7c6)cc5c43)cc2C(F)(F)F)CC1 [Torin]	sensitized	sensitized
